Assay: size of spray dried nanoparticles by scanning electron microscopy (SEM)
Format: physicochemical
Conditions: dissolved in ethanol, spray dried with microfluidic nebulator, flow-focusing nebulization unit, four air inlets, 2.8 bar, 1 ml/h, collected 10 cm from outlet

With `Clc1ccccc1C(c1ccccc1)(c1ccccc1)n1ccnc1` [clotrimazole] the average nanoparticle diameters was 24+/−8 nm.

From patent US20140284001A1, “SYSTEMS AND METHODS FOR SPRAY DRYING IN MICROFLUIDIC AND OTHER SYSTEMS” (President and Fellows Of Harvard College, priority 2012, published 2014)
